Measured values reported in publication PMC10746543, “Design principles for cyclin K molecular glue degraders” (Nature Chemical Biology, 2023).
Where “and” joins values, the source holds several entries; their conditions need not be identical. Equal values may be shown once. Read-outs that look alike come from different tables or passages of the source.

What was measured:
[1] = system: HEK293T cells; test: Drug sensitivity assay (CellTiter-Glo viability) with or without MLN4924 pretreatment; type: cell-based, human; conditions: Supplementary Table 2; for EC50: Homo sapiens, HEK-293T, HEK293T viability, 72 h, compound alone, read-out: Cellular assays EC50; for Toxicity rescue: MLN4924-mediated cytotoxicity rescue, 10 µM used where n.d.
Procedure, shortened: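 First, cells (HEK293T–Cas9, 0.15 × 10^6 ml^−1) are exposed to DMSO or 100 nM MLN4924. Next, drugs follow at 2 h. Finally, CellTiter-Glo is read at day 3 and normalised to DMSO.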

[2] = system: cyclin K–eGFP degradation reporter; test: Cyclin K reporter stability analysis (dual-color cyclin K–eGFP reporter); type: cell-based, human
Procedure, shortened: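 Cells (HEK293T–Cas9, reporter-expressing) at 1 × 10^6 ml^−1; 5 h compound or DMSO; flow cytometry; gMFI eGFP ÷ mCherry on round mCherry-positive events; normalized to 3 DMSO controls.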

[3] = biological target: T1, CDK12–cyclin K and DDB1 (Homo sapiens, UniProt Q16531+Q9NYV4, K965R); test: TR-FRET ternary complex formation assay (compound titration); type: binding; conditions: for TR-FRET signal at compound concentration: replicate titrations
T1 construct: His6–CDK12 (a.a. 713–1,052); full-length or beta-propeller B domain deletion (ΔBPB: a.a. 396–705 deleted) constructs of His6–DDB1ΔBPB, StrepII–Avi–DDB1, or His6–Spy–DDB1; made in house; host or cells: Trichoplusia ni High Five insect cells (baculovirus)
T1 sequence (Q9NYV4 713-1052 K965R): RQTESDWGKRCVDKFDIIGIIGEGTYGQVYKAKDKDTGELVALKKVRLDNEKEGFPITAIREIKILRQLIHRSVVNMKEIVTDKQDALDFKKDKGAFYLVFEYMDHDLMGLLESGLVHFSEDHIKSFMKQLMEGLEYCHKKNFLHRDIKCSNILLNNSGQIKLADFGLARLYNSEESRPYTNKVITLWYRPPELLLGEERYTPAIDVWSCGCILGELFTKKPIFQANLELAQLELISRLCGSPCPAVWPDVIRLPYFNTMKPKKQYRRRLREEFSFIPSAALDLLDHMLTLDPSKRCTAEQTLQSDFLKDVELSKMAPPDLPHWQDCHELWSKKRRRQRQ
T1 sequence (O75909 1-267 partner): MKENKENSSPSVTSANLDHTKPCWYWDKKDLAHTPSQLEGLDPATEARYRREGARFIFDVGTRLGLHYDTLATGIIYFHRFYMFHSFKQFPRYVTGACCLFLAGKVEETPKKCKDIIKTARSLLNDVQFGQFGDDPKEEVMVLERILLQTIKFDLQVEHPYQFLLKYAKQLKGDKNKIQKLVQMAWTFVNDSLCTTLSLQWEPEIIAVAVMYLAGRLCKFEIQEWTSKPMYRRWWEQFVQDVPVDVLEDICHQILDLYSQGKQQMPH
T1 sequence (Q16531 whole entry): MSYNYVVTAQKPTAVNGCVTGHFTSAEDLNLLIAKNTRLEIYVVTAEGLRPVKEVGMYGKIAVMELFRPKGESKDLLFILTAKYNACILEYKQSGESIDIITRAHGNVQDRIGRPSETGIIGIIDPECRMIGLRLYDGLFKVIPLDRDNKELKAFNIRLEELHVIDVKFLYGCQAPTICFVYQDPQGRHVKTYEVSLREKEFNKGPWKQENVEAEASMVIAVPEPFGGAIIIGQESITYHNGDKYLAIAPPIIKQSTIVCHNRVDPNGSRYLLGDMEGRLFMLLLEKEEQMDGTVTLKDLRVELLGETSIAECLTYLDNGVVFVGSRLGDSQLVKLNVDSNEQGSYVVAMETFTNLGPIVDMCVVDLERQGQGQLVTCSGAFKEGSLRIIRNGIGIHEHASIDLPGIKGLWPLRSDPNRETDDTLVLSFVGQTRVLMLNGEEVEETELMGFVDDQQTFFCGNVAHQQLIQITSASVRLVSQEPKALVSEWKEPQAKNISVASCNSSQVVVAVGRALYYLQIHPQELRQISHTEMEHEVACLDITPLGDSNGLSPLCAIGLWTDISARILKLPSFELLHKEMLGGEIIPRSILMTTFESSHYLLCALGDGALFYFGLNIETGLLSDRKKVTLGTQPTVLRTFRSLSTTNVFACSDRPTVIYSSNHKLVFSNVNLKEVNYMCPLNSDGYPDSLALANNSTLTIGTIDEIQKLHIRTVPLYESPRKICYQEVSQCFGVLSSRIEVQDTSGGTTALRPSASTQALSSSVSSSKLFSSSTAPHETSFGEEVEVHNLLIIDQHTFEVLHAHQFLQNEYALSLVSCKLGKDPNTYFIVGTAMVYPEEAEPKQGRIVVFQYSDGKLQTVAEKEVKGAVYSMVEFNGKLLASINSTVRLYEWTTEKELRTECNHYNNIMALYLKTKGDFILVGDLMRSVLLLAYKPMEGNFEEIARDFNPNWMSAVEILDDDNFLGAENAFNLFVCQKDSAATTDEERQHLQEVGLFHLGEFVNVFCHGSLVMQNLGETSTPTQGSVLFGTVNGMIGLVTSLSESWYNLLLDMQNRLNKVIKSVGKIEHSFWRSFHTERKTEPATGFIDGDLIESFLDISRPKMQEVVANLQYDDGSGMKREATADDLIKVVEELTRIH
Procedure, shortened: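 Background fluorescence is reduced by reading 70 μs after excitation, and complex formation is followed as the 520:490 nm fluorescence ratio.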

[4] = biological target: CDK12–cyclin K (Homo sapiens, UniProt Q9NYV4); test: Lanthascreen kinase binding assay, CDK12; conditions: for Lanthascreen raw signal, sheet CDK12: series r37, duplicates
Sequence of CDK12–cyclin K (Q9NYV4 713-1052): as the sequence (Q9NYV4 713-1052 K965R) above, with R253K counted along it
Sequence of CDK12–cyclin K (O75909 1-267 partner limits assumed): as the sequence (O75909 1-267 partner) above
Procedure: (§1) Lanthascreen experiments were performed using commercially available reagents (Thermo Fisher) and according to the manufacturer’s instructions.

[5] = biological target: T2, CDK9–cyclin T (Homo sapiens, UniProt P50750); test: Lanthascreen kinase binding assay, CDK9; conditions: for Lanthascreen TR-FRET signal (raw ratio), sheet CDK9: third titration set (r25), duplicates
T2 construct: purchased Thermo Fisher
T2 sequence (P50750 whole entry): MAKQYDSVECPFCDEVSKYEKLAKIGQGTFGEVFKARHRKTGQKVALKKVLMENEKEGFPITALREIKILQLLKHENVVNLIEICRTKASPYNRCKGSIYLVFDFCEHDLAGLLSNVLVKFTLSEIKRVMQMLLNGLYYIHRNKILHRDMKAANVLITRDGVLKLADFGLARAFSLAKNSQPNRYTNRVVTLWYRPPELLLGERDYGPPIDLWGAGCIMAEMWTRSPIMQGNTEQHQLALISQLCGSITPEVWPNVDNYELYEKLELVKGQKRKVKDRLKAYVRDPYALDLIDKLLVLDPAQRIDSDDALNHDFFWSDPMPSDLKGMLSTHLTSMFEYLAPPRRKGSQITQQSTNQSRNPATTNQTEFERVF
T2 sequence (O60563 whole entry partner): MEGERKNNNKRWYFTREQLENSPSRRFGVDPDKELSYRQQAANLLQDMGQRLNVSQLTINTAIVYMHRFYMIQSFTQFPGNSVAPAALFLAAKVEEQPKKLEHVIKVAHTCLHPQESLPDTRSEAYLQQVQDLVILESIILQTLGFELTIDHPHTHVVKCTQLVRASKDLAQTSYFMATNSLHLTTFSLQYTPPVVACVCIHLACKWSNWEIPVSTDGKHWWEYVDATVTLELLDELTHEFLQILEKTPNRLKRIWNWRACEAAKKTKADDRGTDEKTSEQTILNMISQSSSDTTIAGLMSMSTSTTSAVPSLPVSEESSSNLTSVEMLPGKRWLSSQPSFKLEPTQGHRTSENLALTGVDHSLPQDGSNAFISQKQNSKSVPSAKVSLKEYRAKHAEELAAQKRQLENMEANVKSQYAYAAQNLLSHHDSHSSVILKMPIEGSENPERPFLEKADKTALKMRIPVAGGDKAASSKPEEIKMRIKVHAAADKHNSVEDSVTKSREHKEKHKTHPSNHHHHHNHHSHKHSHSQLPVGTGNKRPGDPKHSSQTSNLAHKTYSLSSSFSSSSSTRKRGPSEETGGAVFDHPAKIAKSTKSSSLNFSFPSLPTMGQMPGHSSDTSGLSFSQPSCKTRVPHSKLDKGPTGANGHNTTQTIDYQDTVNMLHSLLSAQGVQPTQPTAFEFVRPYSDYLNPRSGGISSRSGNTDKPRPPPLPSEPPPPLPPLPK
Procedure: as §1

[6] = biological target: T3, CDK2–cyclin A (Homo sapiens, UniProt P24941); test: Lanthascreen kinase binding assay, CDK2; conditions: for Lanthascreen signal, sheet CDK2: raw replicates, experiment r36-r46
T3 construct: purchased Thermo Fisher
Procedure: as §1

[7] = source data sheet correlations, read-out: DC50
[8] = in vitro complex formation, 50 nM CDK12–cyclin K, 100 nM DDB1, text and figures, read-out: TR-FRET EC50
[9] = source data sheet correlations, read-out: TR-FRET EC50
[10] = sheet MOESM7, read-out: log TR-FRET EC50 (converted)

Structure (SMILES): CC(C)n1cnc2c(NCc3nc4cc(Cl)c(Cl)cc4[nH]3)nc(N3CCOCC3)nc21 [DS18]
- EC50 [1]: 101 nM
- Toxicity rescue [1]: 89%
- DC50 [2, 7]: 13 nM
- TR-FRET signal at compound concentration 0.468 nM ([3]; compound concentration 0.468 nM, raw replicate titration data): 0.2789 and 0.2869 and 0.2441 and 0.2388
- TR-FRET signal at compound concentration 2.16 nM ([3]; compound concentration 2.16 nM, raw replicate titration data): 0.4628 and 0.4735 and 0.4069 and 0.4155
- TR-FRET signal at compound concentration 3.6 nM ([3]; compound concentration 3.6 nM, raw replicate titration data): 0.8592 and 0.9781 and 0.8008 and 0.8631
- TR-FRET signal at compound concentration 7.92001 nM ([3]; compound concentration 7.92001 nM, raw replicate titration data): 1.943 and 2.09 and 1.796 and 1.964
- TR-FRET signal at compound concentration 15.84 nM ([3]; compound concentration 15.84 nM, raw replicate titration data): 3.635 and 3.77 and 3.448 and 3.586
- TR-FRET signal at compound concentration 30.96 nM ([3]; compound concentration 30.96 nM, raw replicate titration data): 4.1538 and 4.3056 and 4.1745 and 4.207
- TR-FRET signal at compound concentration 62.6401 nM ([3]; compound concentration 62.6401 nM, raw replicate titration data): 4.1015 and 4.249 and 4.2539 and 4.27
- TR-FRET signal at compound concentration 125.28 nM ([3]; compound concentration 125.28 nM, raw replicate titration data): 4.175 and 4.298 and 4.2336 and 4.275
- TR-FRET signal at compound concentration 244.8 nM ([3]; compound concentration 244.8 nM, raw replicate titration data): 4.152 and 4.298 and 4.309 and 4.217
- TR-FRET signal at compound concentration 993.601 nM ([3]; compound concentration 993.601 nM, raw replicate titration data): 4.169 and 4.339 and 4.296 and 4.306
- TR-FRET signal at compound concentration 2001.6 nM ([3]; compound concentration 2001.6 nM, raw replicate titration data): 4.114 and 4.419 and 4.291 and 4.3409
- EC50 [3, 8]: 9 ± 0.2 nM
- EC50 [3, 9]: 8.77 nM
- CDK inhibitory selectivity, result in words ([4]; Lanthascreen across CDK2/9/12): CDK12 selective
- IC50 ([4]; Supplementary Table 2, read-out: Lanthascreen IC50 [nM] CDK12): 289 nM
- Lanthascreen raw signal, sheet CDK12 ([4]; compound 0.038147 nM): 0.01361 and 0.01362
- Lanthascreen raw signal, sheet CDK12 ([4]; compound 0.152588 nM): 0.01347 and 0.01332
- Lanthascreen raw signal, sheet CDK12 ([4]; compound 0.610352 nM): 0.0127 and 0.0128
- Lanthascreen raw signal, sheet CDK12 ([4]; compound 9.76563 nM): 0.01118 and 0.01013
- Lanthascreen raw signal, sheet CDK12 ([4]; compound 39.0625 nM): 0.009017 and 0.009485
- Lanthascreen raw signal, sheet CDK12 ([4]; compound 156.25 nM): 0.008554 and 0.0083
- Lanthascreen raw signal, sheet CDK12 ([4]; compound 625 nM): 0.007301 and 0.007453
- Lanthascreen raw signal, sheet CDK12 ([4]; compound 2500 nM): 0.006348 and 0.005959
- Lanthascreen raw signal, sheet CDK12 ([4]; compound 10000 nM): 0.004442 and 0.004613
- IC50 ([5]; Supplementary Table 2, read-out: Lanthascreen IC50 [nM] CDK9): 4480 nM
- Lanthascreen TR-FRET signal (raw ratio), sheet CDK9 ([5]; compound 0.038147 nM): 0.02012 and 0.0204
- Lanthascreen TR-FRET signal (raw ratio), sheet CDK9 ([5]; compound 0.152588 nM): 0.02154 and 0.01902
- Lanthascreen TR-FRET signal (raw ratio), sheet CDK9 ([5]; compound 0.610352 nM): 0.02155 and 0.01817
- Lanthascreen TR-FRET signal (raw ratio), sheet CDK9 ([5]; compound 9.76563 nM): 0.02115 and 0.01877
- Lanthascreen TR-FRET signal (raw ratio), sheet CDK9 ([5]; compound 39.0625 nM): 0.01878 and 0.01673
- Lanthascreen TR-FRET signal (raw ratio), sheet CDK9 ([5]; compound 156.25 nM): 0.02006 and 0.01591
- Lanthascreen TR-FRET signal (raw ratio), sheet CDK9 ([5]; compound 625 nM): 0.01306 and 0.01486
- Lanthascreen TR-FRET signal (raw ratio), sheet CDK9 ([5]; compound 2500 nM): 0.01488 and 0.01061
- Lanthascreen TR-FRET signal (raw ratio), sheet CDK9 ([5]; compound 10000 nM): 0.007693 and 0.006879
- Lanthascreen signal, sheet CDK2 ([6]; Compound 0.038147 nM): 0.01344 and 0.01366
- Lanthascreen signal, sheet CDK2 ([6]; Compound 0.152588 nM): 0.01349 and 0.01367
- Lanthascreen signal, sheet CDK2 ([6]; Compound 0.610352 nM): 0.01404 and 0.01386
- Lanthascreen signal, sheet CDK2 ([6]; Compound 9.76563 nM): 0.01422 and 0.01378
- Lanthascreen signal, sheet CDK2 ([6]; Compound 39.0625 nM): 0.01396 and 0.01343
- Lanthascreen signal, sheet CDK2 ([6]; Compound 156.25 nM): 0.01511 and 0.01391
- Lanthascreen signal, sheet CDK2 ([6]; Compound 625 nM): 0.01354 and 0.01331
- Lanthascreen signal, sheet CDK2 ([6]; Compound 2500 nM): 0.01311 and 0.01172
- Lanthascreen signal, sheet CDK2 ([6]; Compound 10000 nM): 0.009843 and 0.008946
- IC50 ([6]; Supplementary Table 2, read-out: Lanthascreen IC50 [nM] CDK2): 5730 nM

Structure (SMILES): CN(C)C/C=C/C(=O)Nc1ccc(C(=O)N2CCC[C@@H](Nc3ncc(Cl)c(-c4c[nH]c5ccccc45)n3)C2)cc1 [THZ531, reference compound]
- EC50 [1]: 271 nM
- Toxicity rescue [1]: -22%
- DC50 ([2]; Supplementary Table 2, HEK293T cycK-eGFP reporter, 5 h, read-out: Cellular assays DC50): > 10000 nM
- TR-FRET signal at compound concentration 4.68 nM ([3]; compound concentration 4.68 nM, raw replicate titration data): 0.1294 and 0.1297
- TR-FRET signal at compound concentration 21.6 nM ([3]; compound concentration 21.6 nM, raw replicate titration data): 0.1203 and 0.1454
- TR-FRET signal at compound concentration 36 nM ([3]; compound concentration 36 nM, raw replicate titration data): 0.1008 and 0.09563
- TR-FRET signal at compound concentration 79.2001 nM ([3]; compound concentration 79.2001 nM, raw replicate titration data): 0.09205 and 0.08033
- TR-FRET signal at compound concentration 158.4 nM ([3]; compound concentration 158.4 nM, raw replicate titration data): 0.08734 and 0.07305
- TR-FRET signal at compound concentration 309.6 nM ([3]; compound concentration 309.6 nM, raw replicate titration data): 0.08584 and 0.06932
- TR-FRET signal at compound concentration 626.401 nM ([3]; compound concentration 626.401 nM, raw replicate titration data): 0.07997 and 0.06847
- TR-FRET signal at compound concentration 1252.8 nM ([3]; compound concentration 1252.8 nM, raw replicate titration data): 0.0797 and 0.06911
- TR-FRET signal at compound concentration 2448 nM ([3]; compound concentration 2448 nM, raw replicate titration data): 0.07318 and 0.06928
- TR-FRET signal at compound concentration 9936.01 nM ([3]; compound concentration 9936.01 nM, raw replicate titration data): 0.07478 and 0.06588
- TR-FRET signal at compound concentration 20016 nM ([3]; compound concentration 20016 nM, raw replicate titration data): 0.07606 and 0.06434

Structure (SMILES): CC[C@H](CO)Nc1nc(NCc2ccc(-c3ccccn3)c(=O)[nH]2)c2ncn(C(C)C)c2n1 [WX3]
- EC50 [1]: 179 nM
- Toxicity rescue [1]: 954%
- DC50 [2, 7]: 23 nM
- TR-FRET signal at compound concentration ([3]; compound concentration 0.468 nM): 0.2972 and 0.3391
- TR-FRET signal at compound concentration ([3]; compound concentration 2.16 nM): 0.4654 and 0.4243
- TR-FRET signal at compound concentration ([3]; compound concentration 3.6 nM): 0.6432 and 0.6311
- TR-FRET signal at compound concentration ([3]; compound concentration 7.92001 nM): 1.023 and 1.017
- TR-FRET signal at compound concentration ([3]; compound concentration 15.84 nM): 1.68 and 1.67
- TR-FRET signal at compound concentration ([3]; compound concentration 30.96 nM): 2.537 and 2.526
- TR-FRET signal at compound concentration ([3]; compound concentration 62.6401 nM): 3.223 and 3.119
- TR-FRET signal at compound concentration ([3]; compound concentration 125.28 nM): 3.664 and 3.458
- TR-FRET signal at compound concentration ([3]; compound concentration 244.8 nM): 3.773 and 3.684
- TR-FRET signal at compound concentration ([3]; compound concentration 993.601 nM): 3.764 and 3.722
- TR-FRET signal at compound concentration ([3]; compound concentration 2001.6 nM): 3.801 and 3.784
- EC50 [3, 8]: 21 ± 1 nM
- EC50 [3, 10]: 21.4 nM
- EC50 [3, 9]: 21.4 nM

Structure (SMILES): CC[C@H](CO)Nc1nc(NCc2cnc(-c3ccccn3)cc2C2OCCO2)c2ncn(C(C)C)c2n1 [WX4]
- EC50 [1]: 1180 nM
- Toxicity rescue [1]: 432%
- DC50 [2, 7]: 365 nM
- TR-FRET signal at compound concentration ([3]; compound concentration 4.68 nM): 0.2788 and 0.2836
- TR-FRET signal at compound concentration ([3]; compound concentration 21.6 nM): 0.5021 and 0.5027
- TR-FRET signal at compound concentration ([3]; compound concentration 36 nM): 0.8511 and 0.8473
- TR-FRET signal at compound concentration ([3]; compound concentration 79.2001 nM): 1.261 and 1.263
- TR-FRET signal at compound concentration ([3]; compound concentration 158.4 nM): 1.515 and 1.577
- TR-FRET signal at compound concentration ([3]; compound concentration 309.6 nM): 1.862 and 1.944
- TR-FRET signal at compound concentration ([3]; compound concentration 626.401 nM): 2.0566 and 2.128
- TR-FRET signal at compound concentration ([3]; compound concentration 1252.8 nM): 2.108 and 2.242
- TR-FRET signal at compound concentration ([3]; compound concentration 2448 nM): 2.161 and 2.2916
- TR-FRET signal at compound concentration ([3]; compound concentration 9936.01 nM): 2.174 and 2.318
- TR-FRET signal at compound concentration ([3]; compound concentration 20016 nM): 2.132 and 2.191
- EC50 [3, 8]: 79 ± 6 nM
- EC50 [3, 10]: 78.5 nM
- EC50 [3, 9]: 78.5 nM
